Among the data in patent US10836734B2, “Spiroquinone derivative compound, production method thereof, and pharamaceutical composition for preventing or treating neurological disorders which contains same as active ingredient” (GACHON UNIVERSITY OF INDUSTRY-ACADEMIC COOPERATION …, priority 2016, dated 2020) are remaining activity and IC50 values, retold here.

For assay [1], the target named is acetylcholine esterase (eeAChE, EC 3.1.1.7) (Electrophorus electricus, UniProt O42275). Nature of the assay: Acetylcholine esterase inhibition activity (ACh quantification colorimetric assay kit). Format: biochemical. The settings on record: read-out: Residual activity of acetylcholine esterase (%); for remaining activity at 10 µM: 10 μM compound; for remaining activity at 30 µM: 30 μM compound. How it is done: Particularly, a quantitative kit (ACh quantification colorimetric assay kit from BioVision) was prepared in order to quantify acetylcholine esterase (eeAChE, EC 3.1.1.7) and acetylcholine chloride (ACh) of Electrophorus electricus and acetylcholine. To measure the enzyme inhibition activity of the compound of the example of the invention, the following experiment was performed based on the standardized method of the manufacturer of the Ach kit (Draczkowski, P. et al. Bba-Gen Subjects 1860, 967-974, doi:10.1016/j.bbagen.2015.11.006 (2016)).
First, acetylcholine esterase (eeAChE, EC 3.1.1.7) was dissolved in […] Tris-HCL buffer at the concentration of 5 μM. Acetylcholine chloride was dissolved in 20 mM Tris-HCL buffer, resulting in the preparation of a Tris-HCL aqueous solution containing 10 μM acetylcholine chloride. The compound of the example was prepared in different concentrations of 10 μM and 30 μM. The prepared acetylcholine chloride solution and the compound solution were mixed in 20 μM acetylcholine esterase. 20 minutes and 30 minutes after mixing, the color change of the quantitative kit was measured at 570 nm in order to evaluate the inhibitory effect of the compound particularly to inhibit acetylcholine esterase that decomposes acetylcholine into choline.
All the experiments were repeated at least twice, from which the mean values and the standard deviations were calculated.

Assay [2] deals with murine microglial BV-2 cells. Description: Quantification of nitrite generation in LPS treated nerve cell line. The class given is cell-based. The settings on record: Mus musculus; LPS treated BV-2 cells; FIG. 5; read-out: IC50 for nitric oxide. How it is done:
Particularly, in order to quantify the nitrite generation in the LPS treated nerve cell line, nitrite generated from nitric oxide secreted therein was quantified. With the quantified nitrite, the inhibition of microglial activation and the neuron protection effect thereby were examined. The nerve cell line (BV2) was treated with LPS ([…]), and then treated with the compound of the present invention at different concentrations of 0.01 μM, 0.1 μM and 1 μM, or 1 μM, 5 μM and 10 μM (Con: DMSO treated group (not treated with the compound of the invention and LPS), LPS: LPS treated group ([…])).
Further, IC50 was calculated from the quantification of nitric oxide measured by concentration gradient in FIGS. 1 and 3, and the results are shown in FIG. 5.

Sequence of acetylcholine esterase (eeAChE, EC 3.1.1.7) (O42275 24-633): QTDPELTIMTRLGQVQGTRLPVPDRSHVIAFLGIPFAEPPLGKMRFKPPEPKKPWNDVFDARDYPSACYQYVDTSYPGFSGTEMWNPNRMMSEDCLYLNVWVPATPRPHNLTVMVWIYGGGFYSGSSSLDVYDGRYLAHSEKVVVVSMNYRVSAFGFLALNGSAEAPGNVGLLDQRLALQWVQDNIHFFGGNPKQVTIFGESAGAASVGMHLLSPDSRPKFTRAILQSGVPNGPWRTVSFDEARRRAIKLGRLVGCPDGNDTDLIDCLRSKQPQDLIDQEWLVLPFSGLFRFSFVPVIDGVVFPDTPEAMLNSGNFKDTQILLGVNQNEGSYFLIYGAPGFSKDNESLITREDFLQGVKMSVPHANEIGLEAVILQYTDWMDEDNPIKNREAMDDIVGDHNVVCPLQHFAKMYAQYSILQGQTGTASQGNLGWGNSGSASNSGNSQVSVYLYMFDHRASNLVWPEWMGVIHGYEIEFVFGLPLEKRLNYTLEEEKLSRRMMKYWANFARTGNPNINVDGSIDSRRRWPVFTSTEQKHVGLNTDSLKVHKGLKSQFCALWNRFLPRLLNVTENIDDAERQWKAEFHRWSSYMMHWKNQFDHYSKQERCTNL

Consider `CC1COC2(C=CC(=O)C=C2)N(c2ccccc2)C1=O` (stereo not drawn) [Example 2, 3-methyl-5-phenyl-1-oxa-5-azaspiro[5,5]undeca-7,10-diene-4,9-dione], for which, in assay [1], the remaining activity at 10 µM turned out to be 29.7% and the remaining activity at 30 µM worked out at 7.03%. On the same counts, the results for `C=CCC1COC2(C=CC(=O)C=C2)N(c2ccccc2)C1=O` (stereo not drawn) [Example 3, 3-allyl-5-phenyl-1-oxa-5-azaspiro[5,5]undeca-7,10-diene-4,9-dione] are 30.3% and -2.03%. On the same counts, the results for `O=C1C=CC2(C=C1)OCC(Cc1ccccc1)C(=O)N2c1ccccc1` (stereo not drawn) [Example 6, 3-benzyl-5-phenyl-1-oxa-5-azaspiro[5,5]undeca-7,10-diene-4,9-dione] are 40.2% and 6.07%.

With `O=C1C=CC2(C=C1)OCC(Cc1ccc(F)cc1)C(=O)N2c1ccccc1` (stereo not drawn) [Example 7, 3-(4-fluoro-benzyl)-5-phenyl-1-oxa-5-azaspiro[5,5]undeca-7,10-diene-4,9-dione], in assay [1], the remaining activity at 10 µM was found to be 46.7% and the remaining activity at 30 µM is 4.74%. For `O=C1C=CC2(C=C1)OCC(Cc1ccc(Br)cc1)C(=O)N2c1ccccc1` (stereo not drawn) [Example 10, 3-(4-bromo-benzyl)-5-phenyl-1-oxa-5-azaspiro[5,5]undeca-7,10-diene-4,9-dione], in that order: 27.3% and 12.9%.

Turning to `O=C1C=CC2(C=C1)OCC(Cc1ccc(C(F)(F)F)cc1)C(=O)N2c1ccccc1` (stereo not drawn) [Example 11, 3-(4-trifluoromethyl-benzyl)-5-phenyl-1-oxa-5-azaspiro[5,5]undeca-7,10-diene-4,9-dione], in assay [1], the remaining activity at 10 µM was determined as 69.4% and the remaining activity at 30 µM was 22.1%. On to `O=C1C=CC2(C=C1)OCC(Cc1cc(C(F)(F)F)cc(C(F)(F)F)c1)C(=O)N2c1ccccc1` (stereo not drawn) [Example 14, 3-(3,5-ditrifluoromethyl-benzyl)-5-phenyl-1-oxa-5-azaspiro[5,5]undeca-7,10-diene-4,9-dione], for which the IC50 in assay [2] is roughly 300 nM. `O=C1C=CC2(C=C1)OCC(Cc1ccccc1)C(=O)N2c1cccnc1` (stereo not drawn) [Example 19, 3-benzyl-5-(pyridine-3-yl)-1-oxa-5-azaspiro[5,5]undeca-7,10-diene-4,9-dione]: in assay [1], the remaining activity at 10 µM turned out to be 66.1% and the remaining activity at 30 µM came out at 8.07%. Take `CC1COC2(C=CC(=O)C(F)=C2)N(c2ccccc2)C1=O` (stereo not drawn) [Example 22, 3-methyl-8-fluoro-5-phenyl-1-oxa-5-azaspiro[5,5]undeca-7,10-diene-4,9-dione]: in assay [1], the remaining activity at 10 µM is 51.6% and the remaining activity at 30 µM was determined as 2.47%.

With `C=CCC1COC2(C=CC(=O)C(F)=C2)N(c2ccccc2)C1=O` (stereo not drawn) [Example 23, 3-allyl-8-fluoro-5-phenyl-1-oxa-5-azaspiro[5,5]undeca-7,10-diene-4,9-dione], in assay [1], the remaining activity at 10 µM is 38.1% and the remaining activity at 30 µM was 5.64%. On to `O=C1C=CC2(C=C1F)OCC(Cc1ccccc1)C(=O)N2c1ccccc1` (stereo not drawn) [Example 24, 3-benzyl-8-fluoro-5-phenyl-1-oxa-5-azaspiro[5,5]undeca-7,10-diene-4,9-dione], for which, in assay [1], the remaining activity at 10 µM was 35.6% and the remaining activity at 30 µM was found to be 8.89%. With `CC1=CC2(C=CC1=O)OCC(C)C(=O)N2c1ccccc1` (stereo not drawn) [Example 25, 3,8-dimethyl-5-phenyl-1-oxa-5-azaspiro[5,5]undeca-7,10-diene-4,9-dione], in assay [1], the remaining activity at 10 µM was 20.9% and the remaining activity at 30 µM was 8.15%. For the compound `CC1=CC2(C=CC1=O)OCC(Cc1ccccc1)C(=O)N2c1ccccc1` (stereo not drawn) [Example 28, 3-benzyl-8-methyl-5-phenyl-1-oxa-5-azaspiro[5,5]undeca-7,10-diene-4,9-dione], in assay [1], the remaining activity at 10 µM worked out at 55.4% and the remaining activity at 30 µM came to 3.08%.

In the case of `CN1C(=O)C(Cc2ccccc2)COC12C=CC(=O)C=C2` (stereo not drawn) [Example 33, 3-benzyl-5-methyl-1-oxa-5-azaspiro[5,5]undeca-7,10-diene-4,9-dione], in assay [1], the remaining activity at 10 µM was 50.5% and the remaining activity at 30 µM was determined as 2.08%.
